Laboratory results as given in PubChem BioAssay (NCI).
Several values for one entry are separate records, joined by “and”; a condition that tells them apart may be missing. Equal values may be shown once.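 All cell lines were grown in 96-well plates and treated with compound for 48 hours. At the GI50, growth is halved. TGI is the concentration that stops growth completely.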

Assays:
Experiment in all cases: growth of human tumour cells (NCI), 48 h
[1] = test system: RPMI-8226 leukemia
[2] = test system: COLO 205 colon
[3] = test system: UACC-257 melanoma
[4] = test system: NCI-H226 lung
[5] = test system: HOP-62 NSCLC
[6] = test system: K-562 leukemia
[7] = test system: U251 CNS
[8] = test system: A549 NSCLC
[9] = test system: MALME-3M melanoma
[10] = test system: SK-MEL-5 melanoma

CCn1c(-c2nonc2N)nc2c(C#CCN)ncc(OCCCN)c21
GI50 [1]: > 25 µM | TGI [1]: > 25 µM | GI50 [2]: > 25 µM | TGI [2]: > 25 µM | GI50 [3]: > 25 µM | TGI [3]: > 25 µM | GI50 [4]: > 25 µM | TGI [4]: > 25 µM | GI50 [5]: > 25 µM | TGI [5]: > 25 µM | GI50 [6]: > 25 µM | TGI [6]: > 25 µM | GI50 [7]: > 25 µM | TGI [7]: > 25 µM | GI50 [8]: > 25 µM | TGI [8]: > 25 µM | GI50 [9]: > 25 µM | TGI [9]: > 25 µM | GI50 [10]: > 25 µM | TGI [10]: > 25 µM

COc1ccc(-c2nn(-c3cccc(Cl)c3)cc2C2CC(c3ccccc3)=NN2C(C)=O)cc1 (stereo not drawn)
GI50 [1]: > 100 µM | TGI [1]: > 100 µM | GI50 [2]: > 100 µM | TGI [2]: > 100 µM | GI50 [3]: 32.1 µM | TGI [3]: > 100 µM | GI50 [4]: 3.86 µM | TGI [4]: 30.9 µM | GI50 [5]: 2.62 µM | TGI [5]: 6.4 µM | GI50 [6]: > 100 µM | TGI [6]: > 100 µM | GI50 [7]: 3.15 µM | TGI [7]: 14.9 µM | GI50 [8]: 7.58 µM | TGI [8]: > 100 µM | GI50 [9]: 4.87 µM | TGI [9]: 35.2 µM | GI50 [10]: 30.3 µM | TGI [10]: > 100 µM

COc1ccc(NC(=O)Nc2n[nH]c3ccccc23)cc1
GI50 [1]: > 100 µM | TGI [1]: > 100 µM | GI50 [2]: > 100 µM | TGI [2]: > 100 µM | GI50 [3]: > 100 µM | TGI [3]: > 100 µM | GI50 [4]: > 100 µM | TGI [4]: > 100 µM | GI50 [5]: > 100 µM | TGI [5]: > 100 µM | GI50 [6]: > 100 µM | TGI [6]: > 100 µM | GI50 [7]: > 100 µM | TGI [7]: > 100 µM | GI50 [8]: > 100 µM | TGI [8]: > 100 µM | GI50 [9]: > 100 µM | TGI [9]: > 100 µM | GI50 [10]: > 100 µM | TGI [10]: > 100 µM

CCCCCCCCCCCCCC(=S)NCCCC[C@H](NC(=O)OCc1ccccc1)C(=O)Nc1ccccc1
GI50 [1]: 3.5 µM | TGI [1]: > 100 µM | GI50 [2]: 3.87 µM | TGI [2]: 22.5 µM | GI50 [3]: 5.38 µM | TGI [3]: > 100 µM | GI50 [4]: 5.71 µM | TGI [4]: > 100 µM | GI50 [5]: 16 µM | TGI [5]: > 100 µM | GI50 [6]: 4.21 µM | TGI [6]: > 100 µM | GI50 [7]: 3.21 µM | TGI [7]: > 100 µM | GI50 [8]: 6.31 µM | TGI [8]: > 100 µM | GI50 [9]: 7.41 µM | TGI [9]: > 100 µM | GI50 [10]: 8.39 µM | TGI [10]: > 100 µM

COc1cccc(/C=C/C(=O)c2cc3c(N)c(C(=O)Nc4ccccc4C)sc3nc2C)c1
GI50 [1]: 1.09 µM | TGI [1]: 2.92 µM | GI50 [2]: 2.02 µM | TGI [2]: 7.61 µM | GI50 [3]: 1.21 µM | TGI [3]: 3.75 µM | GI50 [4]: 1.07 µM | TGI [4]: 2.92 µM | GI50 [5]: 1.12 µM | TGI [5]: 2.57 µM | GI50 [6]: 1.42 µM | TGI [6]: > 50 µM | GI50 [7]: 0.892 µM | TGI [7]: 1.81 µM | GI50 [8]: 1.53 µM | TGI [8]: 6.29 µM | GI50 [9]: 2.29 µM | TGI [9]: 12.6 µM | GI50 [10]: 1.44 µM | TGI [10]: 4.56 µM

C#CCNC(=O)NC(CCCNC(=O)OCc1ccccc1)C(=O)OCc1ccccc1 (stereo not drawn)
TGI [1]: > 100 µM | TGI [2]: > 100 µM | TGI [3]: 93.3 µM | TGI [4]: > 100 µM | TGI [5]: > 100 µM | TGI [6]: > 100 µM | TGI [7]: > 100 µM | TGI [8]: > 100 µM | TGI [9]: > 100 µM | TGI [10]: > 100 µM

CC(C)(C)OC(=O)NC(Cc1ccccc1)C(=O)OCN1C(=O)C2C3C=CC(C2C1=O)C1C2C(=O)N(COC(=O)C(Cc4ccccc4)NC(=O)OC(C)(C)C)C(=O)C2C31 (stereo not drawn)
TGI [1]: > 100 µM | TGI [2]: 28.7 µM | TGI [3]: > 100 µM | TGI [4]: > 96.4 µM | TGI [5]: > 100 µM | TGI [6]: > 100 µM | TGI [7]: > 100 µM | TGI [8]: > 73.8 µM | TGI [9]: > 100 µM | TGI [10]: > 74.8 µM

CC(=O)Nc1cccc(-n2c(=O)n(C3CC3)c(=O)c3c(Nc4ccc(I)cc4F)n(C)c(=O)c(C)c32)c1
GI50 [1]: 5.35 µM and > 4.38 µM | TGI [1]: > 100 µM | GI50 [2]: < 0.01 µM and 0.00125 µM | GI50 [3]: < 0.01 µM and 0.00182 µM | TGI [3]: < 0.01 µM and 0.0126 µM | GI50 [4]: 4.37 µM and > 4.88 µM | TGI [4]: 47.8 µM and > 10 µM | GI50 [5]: 0.0121 µM | TGI [5]: > 50.7 µM | GI50 [6]: 0.0955 µM and 0.196 µM | TGI [6]: > 100 µM | GI50 [7]: 0.401 µM | TGI [7]: 32 µM and > 10 µM | GI50 [8]: 0.0345 µM and 0.122 µM | TGI [8]: > 43.8 µM | GI50 [9]: < 0.01 µM and 0.00164 µM | TGI [9]: < 0.01 µM | TGI [10]: 15.9 µM and > 10 µM

CC(=O)[CH-]C(=O)c1ccccc1.CC(=O)[CH-]C(=O)c1ccccc1.CCCCCCCCCCCCCCCCCC(=O)[O-].CCCCCCCCCCCCCCCCCC(=O)[O-].[Ti+4]
GI50 [1]: 21.6 µM | TGI [1]: 55.4 µM | GI50 [2]: 87.4 µM | TGI [2]: > 100 µM | GI50 [3]: 24.6 µM | TGI [3]: 68.5 µM | GI50 [4]: 14.5 µM | TGI [4]: 34.3 µM | GI50 [5]: 30.7 µM | TGI [5]: 90.9 µM | GI50 [6]: 22.3 µM | TGI [6]: 62.1 µM | GI50 [7]: 20.3 µM | TGI [7]: 41.4 µM | GI50 [8]: 19 µM | TGI [8]: 37.3 µM | GI50 [9]: 36.7 µM | TGI [9]: > 100 µM | GI50 [10]: 21 µM | TGI [10]: 48.2 µM

COc1cc(-n2cc(-c3ccc(Cl)c(Cl)c3)nc2SCc2ccccc2)cc(OC)c1OC
GI50 [1]: > 100 µM | TGI [1]: > 100 µM | GI50 [2]: > 100 µM | TGI [2]: > 100 µM | GI50 [3]: > 100 µM | TGI [3]: > 100 µM | GI50 [4]: > 100 µM | TGI [4]: > 100 µM | GI50 [5]: > 100 µM | TGI [5]: > 100 µM | GI50 [6]: > 100 µM | TGI [6]: > 100 µM | GI50 [7]: > 100 µM | TGI [7]: > 100 µM | GI50 [8]: > 100 µM | TGI [8]: > 100 µM | GI50 [9]: > 100 µM | TGI [9]: > 100 µM | GI50 [10]: > 100 µM | TGI [10]: > 100 µM
